Active and inactive are the calls of the source. The calls are words filed in the database; no cut-off is given here.
Tests used:
Stromelysin-1 [1] = target: T1, Stromelysin-1 (Homo sapiens, UniProt P08254); assay: In vitro inhibition of human recombinant Matrix metalloprotease-3.
Interstitial collagenase [2] = target: T2, Interstitial collagenase (Homo sapiens, UniProt P03956); assay: In vitro inhibition of human recombinant Matrix metalloprotease-1.
T2 sequence (P03956 whole entry): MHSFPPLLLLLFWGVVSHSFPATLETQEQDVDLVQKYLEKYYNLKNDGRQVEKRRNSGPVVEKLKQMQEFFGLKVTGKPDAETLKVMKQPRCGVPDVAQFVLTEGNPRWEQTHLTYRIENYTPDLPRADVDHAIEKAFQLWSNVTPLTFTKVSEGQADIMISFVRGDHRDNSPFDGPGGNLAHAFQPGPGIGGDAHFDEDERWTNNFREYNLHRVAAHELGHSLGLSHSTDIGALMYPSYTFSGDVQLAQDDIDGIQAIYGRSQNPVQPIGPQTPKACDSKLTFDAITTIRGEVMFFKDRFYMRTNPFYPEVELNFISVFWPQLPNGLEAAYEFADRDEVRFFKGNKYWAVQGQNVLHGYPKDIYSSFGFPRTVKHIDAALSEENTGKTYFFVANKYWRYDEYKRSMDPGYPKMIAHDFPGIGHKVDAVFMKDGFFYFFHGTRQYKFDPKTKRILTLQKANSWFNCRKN

[3] = In vitro for the inhibition of TNF alpha release by human peripheral blood monocytes (PBMs); format: functional
[4] = target: Disintegrin and metalloproteinase domain-containing protein 17 (Homo sapiens) (UniProt P78536); assay: Inhibitory activity against TACE
[5] = target: T3, 72 kDa type IV collagenase (Homo sapiens, UniProt P08253)
Description: In vitro inhibition of human recombinant Matrix metalloprotease-2.

Stromelysin-1 [6] = target: T1, Stromelysin-1; assay: Inhibitory activity against recombinant matrix metalloprotease-3
[7] = target: T3, 72 kDa type IV collagenase; assay: Inhibitory activity against recombinant matrix metalloprotease-2
Interstitial collagenase [8] = target: T2, Interstitial collagenase; assay: Inhibitory activity against recombinant matrix metalloprotease-1
[9] = target: Phosphodiesterase 4 (Cavia porcellus); assay: Phosphodiesterase 4 inhibitory activity measured against guinea pig macrophage homogenate

Sequence of Disintegrin and metalloproteinase domain-containing protein 17 (Homo sapiens) (P78536 whole entry, the tested form may be a part): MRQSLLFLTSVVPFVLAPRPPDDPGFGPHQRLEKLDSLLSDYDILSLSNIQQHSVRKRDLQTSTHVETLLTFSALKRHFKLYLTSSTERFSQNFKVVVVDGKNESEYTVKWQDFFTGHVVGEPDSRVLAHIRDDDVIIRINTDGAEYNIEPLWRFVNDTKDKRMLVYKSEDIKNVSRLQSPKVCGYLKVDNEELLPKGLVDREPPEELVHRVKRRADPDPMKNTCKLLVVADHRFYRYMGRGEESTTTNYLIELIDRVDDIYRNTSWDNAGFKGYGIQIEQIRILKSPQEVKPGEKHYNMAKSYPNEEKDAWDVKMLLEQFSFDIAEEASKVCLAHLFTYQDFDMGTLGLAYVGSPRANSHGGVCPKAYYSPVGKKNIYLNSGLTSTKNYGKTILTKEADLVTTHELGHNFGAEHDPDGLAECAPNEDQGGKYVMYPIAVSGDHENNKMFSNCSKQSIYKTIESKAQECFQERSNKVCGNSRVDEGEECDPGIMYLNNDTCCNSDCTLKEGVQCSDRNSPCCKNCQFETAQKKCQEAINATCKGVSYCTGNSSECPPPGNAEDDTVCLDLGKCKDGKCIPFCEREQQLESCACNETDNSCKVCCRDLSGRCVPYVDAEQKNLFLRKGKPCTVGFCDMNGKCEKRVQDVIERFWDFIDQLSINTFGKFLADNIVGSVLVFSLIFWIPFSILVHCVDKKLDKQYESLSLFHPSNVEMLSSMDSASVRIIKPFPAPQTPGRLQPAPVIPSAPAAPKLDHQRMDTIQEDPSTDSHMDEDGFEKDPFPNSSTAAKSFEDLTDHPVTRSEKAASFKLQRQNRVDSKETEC
T1 sequence (P08254 whole entry): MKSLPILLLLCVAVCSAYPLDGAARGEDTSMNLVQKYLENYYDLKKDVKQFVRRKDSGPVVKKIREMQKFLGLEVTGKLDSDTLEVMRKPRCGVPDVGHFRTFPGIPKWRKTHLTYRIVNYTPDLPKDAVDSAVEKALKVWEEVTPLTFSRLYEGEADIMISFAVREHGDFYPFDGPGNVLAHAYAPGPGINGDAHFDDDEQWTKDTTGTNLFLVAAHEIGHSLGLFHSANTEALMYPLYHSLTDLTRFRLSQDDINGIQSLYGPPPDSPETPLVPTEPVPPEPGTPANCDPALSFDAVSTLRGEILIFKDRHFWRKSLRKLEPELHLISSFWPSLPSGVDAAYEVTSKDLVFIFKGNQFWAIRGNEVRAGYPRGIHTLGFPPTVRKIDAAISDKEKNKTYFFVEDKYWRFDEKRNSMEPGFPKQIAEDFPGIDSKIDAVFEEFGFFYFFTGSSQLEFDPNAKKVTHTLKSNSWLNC
T3 sequence (P08253 whole entry): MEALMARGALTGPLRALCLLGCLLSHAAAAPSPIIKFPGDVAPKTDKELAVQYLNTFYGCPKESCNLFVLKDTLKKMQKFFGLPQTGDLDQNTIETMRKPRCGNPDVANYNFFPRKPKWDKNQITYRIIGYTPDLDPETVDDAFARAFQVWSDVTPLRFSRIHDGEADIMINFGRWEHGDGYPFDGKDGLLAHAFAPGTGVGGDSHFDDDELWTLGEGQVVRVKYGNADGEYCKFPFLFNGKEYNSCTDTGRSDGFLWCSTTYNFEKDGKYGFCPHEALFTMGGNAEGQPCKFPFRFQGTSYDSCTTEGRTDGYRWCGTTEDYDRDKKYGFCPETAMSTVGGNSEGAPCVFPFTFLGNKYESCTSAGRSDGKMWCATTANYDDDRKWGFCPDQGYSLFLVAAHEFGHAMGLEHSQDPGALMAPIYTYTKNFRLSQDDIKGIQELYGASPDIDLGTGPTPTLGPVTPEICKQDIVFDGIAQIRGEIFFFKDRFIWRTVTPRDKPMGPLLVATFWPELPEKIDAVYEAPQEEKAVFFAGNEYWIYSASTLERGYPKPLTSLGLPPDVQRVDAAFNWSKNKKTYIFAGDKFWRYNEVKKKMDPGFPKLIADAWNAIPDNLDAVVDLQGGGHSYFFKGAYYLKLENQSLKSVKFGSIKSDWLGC

| Ki (Stromelysin-1 [1]) [µM] | Ki (Interstitial collagenase [2]) [µM] | IC50 [3] [µM] | Activity [4] | Ki [5] [µM] | IC50 (Stromelysin-1 [6]) [µM] | IC50 [7] [µM] | IC50 (Interstitial collagenase [8]) [µM] | IC50 [9] [µM] | Structure (SMILES) |
| --- | --- | --- | --- | --- | --- | --- | --- | --- | --- |
| 0.3 | 1.71 | > 10 | inactive | 0.008 | – | – | – | – | COc1ccc(S(=O)(=O)C(CC(=O)NO)C(C)c2ccccc2)cc1 (configuration not stated) |
| 0.59 | 0.4 | > 10 | inactive | 0.036 | – | – | – | – | COc1ccc(S(=O)(=O)C(CCC2CCCCC2)CC(=O)NO)cc1 (configuration not stated) |
| – | – | – | – | – | > 10 | > 10 | > 10 | 0.0095 | CCCCCCC(CC(=O)NO)S(=O)(=O)c1ccc(OC)c(OC2CCCC2)c1 (configuration not stated) |
| – | – | – | – | – | > 10 | > 10 | > 10 | 1.04 | COc1ccc(S(=O)(=O)C(CCN(C)C(=O)c2ccccc2)CC(=O)NO)cc1OC1CCCC1 (configuration not stated) |
| – | – | – | – | – | > 10 | > 10 | > 10 | 0.032 | COc1ccc(S(=O)(=O)C(CCCN2C(=O)c3ccccc3C2=O)CC(=O)NO)cc1OC1CCCC1 (configuration not stated) |
| 0.676 | 1.72 | 8 | inactive | 0.027 | – | – | – | – | COc1ccc(S(=O)(=O)C(CC(=O)NO)CC(C)CC(C)(C)C)cc1 (configuration not stated) |
| – | – | – | – | – | > 10 | > 10 | > 10 | 0.102 | COc1ccc(S(=O)(=O)C(CC(=O)NO)CC(C)C)cc1OC1CCCC1 (configuration not stated) |
| – | – | – | – | – | > 10 | > 10 | > 10 | 1.5 | COc1ccc(S(=O)(=O)C(CC(=O)NO)c2ccccc2OCc2ccccc2)cc1OC1CCCC1 (configuration not stated) |
| – | – | – | – | – | > 10 | > 10 | > 10 | 0.46 | COc1ccc(S(=O)(=O)C(CCN(C)C(=O)OCc2ccccc2)CC(=O)NO)cc1OC1CCCC1 (configuration not stated) |
| – | – | > 10 | inactive | – | – | – | – | – | COc1ccc(S(=O)(=O)C(CCCCc2ccccc2)CC(=O)NO)cc1 (configuration not stated) |
| 0.086 | 1.71 | > 10 | inactive | 0.008 | – | – | – | – | COc1ccc(S(=O)(=O)C(CC(=O)NO)C2CCCCC2)cc1 (configuration not stated) |
| 1.43 | > 10 | > 10 | inactive | 0.038 | – | – | – | – | COc1ccc(S(=O)(=O)C(COCc2ccccc2)CC(=O)NO)cc1 (configuration not stated) |
| – | – | – | – | – | > 10 | > 10 | > 10 | 5.25 | CCCC(CC(=O)NO)S(=O)(=O)c1ccc(OC)c(OC)c1 (configuration not stated) |
| – | – | 0.45 | inactive | – | > 10 | > 10 | > 10 | 0.58 | COc1ccc(S(=O)(=O)C(CC(=O)NO)c2ccccc2)cc1OC (configuration not stated) |
| 0.06 | 1.01 | 4.6 | inactive | 0.0008 | – | – | – | – | CCOC(=O)C1CCCC(C(CC(=O)NO)S(=O)(=O)c2ccc(OC)cc2)C1 (configuration not stated) |
| – | – | – | – | – | > 10 | > 10 | > 10 | 0.0064 | COc1ccc(S(=O)(=O)C(CCCCc2ccc3c(c2)OCO3)CC(=O)NO)cc1OC (configuration not stated) |
| – | – | – | – | – | > 10 | > 10 | > 10 | 0.064 | COc1ccc(S(=O)(=O)C(CCc2ccc(OCc3ccccc3)cc2)CC(=O)NO)cc1OC (configuration not stated) |
| – | – | – | – | – | > 10 | > 10 | > 10 | 0.049 | COc1ccc(Oc2cccc(C(CC(=O)NO)S(=O)(=O)c3ccc(OC)c(OC4CCCC4)c3)c2)cc1 (configuration not stated) |
| > 10 | > 10 | > 10 | inactive | > 10 | – | – | – | – | COc1ccc(S(=O)(=O)C(CC(=O)NO)c2ccc(OC(C)C)cc2)cc1 (configuration not stated) |

| Ki (Stromelysin-1 [1]) [µM] | Ki (Interstitial collagenase [2]) [µM] | IC50 [3] [µM] | Activity [4] | Ki [5] [µM] | IC50 (Stromelysin-1 [6]) [µM] | IC50 [7] [µM] | IC50 (Interstitial collagenase [8]) [µM] | IC50 [9] [µM] | Structure (SMILES) |
| --- | --- | --- | --- | --- | --- | --- | --- | --- | --- |
| – | – | – | – | – | > 10 | > 10 | > 10 | 0.032 | COc1ccc(S(=O)(=O)C(CCc2ccc(Oc3ccccc3)cc2)CC(=O)NO)cc1OC1CCCC1 (configuration not stated) |
| – | – | – | – | – | > 10 | > 10 | > 10 | 0.05 | COc1ccc(S(=O)(=O)C(CCC(=O)N(C)c2ccccc2)CC(=O)NO)cc1OC1CCCC1 (configuration not stated) |
| – | – | – | – | – | > 10 | > 10 | > 10 | 0.26 | COc1ccc(S(=O)(=O)C(CC(=O)NO)c2cccc(Oc3ccccc3)c2)cc1OC1CCCC1 (configuration not stated) |
| – | – | – | – | – | > 10 | > 10 | > 10 | 0.974 | COc1ccc(S(=O)(=O)C(CC(=O)NO)CN(C)C(=O)c2ccccc2)cc1OC1CCCC1 (configuration not stated) |
| – | – | – | – | – | > 10 | > 10 | > 10 | 0.055 | CCCC(CC(=O)NO)S(=O)(=O)c1ccc(OC)c(OC2CCCC2)c1 (configuration not stated) |
| – | – | – | – | – | > 10 | > 10 | > 10 | 3.03 | COc1ccc(S(=O)(=O)C(CCc2ccccc2)CC(=O)NO)cc1OC (configuration not stated) |
| – | – | – | – | – | > 10 | > 10 | > 10 | 0.036 | COc1ccc(S(=O)(=O)C(CCCC(=O)N2CCCc3ccccc32)CC(=O)NO)cc1OC1CCCC1 (configuration not stated) |
| 3.3 | > 10 | > 10 | inactive | – | – | – | – | – | COc1ccc(S(=O)(=O)C(CC(=O)NO)c2ccccc2)cc1 (configuration not stated) |
| – | – | – | – | – | > 10 | > 10 | > 10 | 0.063 | COc1ccc(S(=O)(=O)C(CCc2ccc(OCc3ccccc3)cc2)CC(=O)NO)cc1OC1CCCC1 (configuration not stated) |
| – | – | – | – | – | > 10 | > 10 | > 10 | 0.089 | COc1ccc(S(=O)(=O)C(CC(=O)NO)c2cccc(OCc3ccccc3)c2)cc1OC1CCCC1 (configuration not stated) |
| – | – | – | – | – | > 10 | > 10 | > 10 | 0.031 | COc1ccc(S(=O)(=O)C(CCc2ccccc2)CC(=O)NO)cc1OC1CCCC1 (configuration not stated) |
| – | – | – | – | – | > 10 | > 10 | > 10 | 0.118 | COc1ccc(S(=O)(=O)C(CCCC(=O)N(C)c2ccccc2)CC(=O)NO)cc1OC1CCCC1 (configuration not stated) |
| – | – | – | – | – | > 10 | > 10 | > 10 | 0.021 | COc1ccc(S(=O)(=O)C(CC(=O)NO)c2ccc(OCc3ccccc3)cc2)cc1OC1CCCC1 (configuration not stated) |
| – | – | – | – | – | > 10 | > 10 | > 10 | > 10 | COc1ccc(S(=O)(=O)C(CC(=O)NO)CC(C)C)cc1OC (configuration not stated) |
| – | – | – | – | – | > 10 | > 10 | > 10 | 0.14 | COc1ccc(S(=O)(=O)C(CCOC(=O)N(C)c2ccccc2)CC(=O)NO)cc1OC1CCCC1 (configuration not stated) |
| – | – | – | – | – | > 10 | > 10 | > 10 | 0.564 | COc1ccc(S(=O)(=O)C(CCC(=O)N2CCCc3ccccc32)CC(=O)NO)cc1OC (configuration not stated) |
| – | – | – | – | – | > 10 | > 10 | > 10 | 0.016 | COc1ccc(S(=O)(=O)C(CCC(=O)N2CCCc3ccccc32)CC(=O)NO)cc1OC1CCCC1 (configuration not stated) |
| – | – | 0.009 | inactive | – | > 10 | > 10 | > 10 | 0.014 | COc1ccc(S(=O)(=O)C(CCCc2ccccc2)CC(=O)NO)cc1OC (configuration not stated) |
| – | – | – | – | – | > 10 | > 10 | > 10 | 0.295 | COc1ccc(S(=O)(=O)C(CCCC(=O)N2CCCc3ccccc32)CC(=O)NO)cc1OC (configuration not stated) |

| Structure (SMILES) | Ki (Stromelysin-1 [1]) [µM] | Ki (Interstitial collagenase [2]) [µM] | IC50 [3] [µM] | Activity [4] | Ki [5] [µM] | IC50 (Stromelysin-1 [6]) [µM] | IC50 [7] [µM] | IC50 (Interstitial collagenase [8]) [µM] | IC50 [9] [µM] |
| --- | --- | --- | --- | --- | --- | --- | --- | --- | --- |
| COc1ccc(C(=O)Nc2c(Cl)cncc2Cl)cc1OC1CCCC1 | – | – | 0.005 | – | – | – | – | – | – |
